Test results from patent publication US9017935B2, “HIV-1 latency model for high throughput screening” (priority 2005, dated 2015).

How the values were obtained:
[1] = test system: latent HIV-1 proviruses; conditions: background, literature; cited from earlier work
[2] = recently reported (ref. 43); cited from earlier work
[3] = test system: latent HIV-1 vector provirus in NLE-S-G infected SupT1 cells; test: SEAP assay, mass population of NLE-S-G infected SupT1 cells; assay type: cell-based; conditions: mass population three weeks post-infection, TNF-α 100 ng/ml, four days post activation
Text: The infected mass population of cells was next tested for its ability to establish a latent infection. The infected mass population of SupT1 cells was maintained in culture for one month. […] This was also reflected in the reduction of SEAP expression by the third week (FIG. 2C). It was shown in previous studies that tumor necrosis factor (TNF)-α could activate HIV-1 virus production from latently infected cell lines (30).
1×10^6 or 1×10^5 cells from the clonal cell lines or mass populations of infected cells were resuspended in RPMI media with or without the activator. At the indicated day post plating, samples were taken to determine the activity of SEAP. The assay was performed using a SEAP Detection kit (BD Biosciences, Palo Alto, Calif.) according to the manufacturer's protocol. The relative light units (RLU) were measured with a tube luminometer (Turner Designs 20/20) or a MLX Microtiter Plate Luminometer (DYNEX Technologies).

[4] = test system: latent HIV-1 vector provirus in NLE-S-G infected SupT1 cells; test: Flow cytometry of GFP positive cells, mass population of NLE-S-G infected SupT1 cells; assay type: cell-based; conditions: mass population three weeks post-infection (2% before treatment), TNF-α 100 ng/ml, analyzed forty-eight hours after exposure
Text: FIG. 2. Infection of SupT1 cells by NLE^-S-G vector virus. (A) The upper panels depict uninfected SupT1 cells. The lower panels show SupT1 cells that have been infected with NLE-S-G virus. The phase contrast (left panels) and fluorescence microscopy (right panels) images were captured five days post-infection. (B) Flow cytometric analysis of SupT1 cells either mock infected or infected with NLE^−S-G analyzed at day five post-infection or three weeks post-infection. […] Three weeks post infection mass population of unsorted NLE^−S-G infected SupT1 cells (10^6 cells/ml) were stimulated with TNF-α (100 ng/ml). Cells were analyzed forty-eight hours after exposure. Numbers represent the percentages of gfp positive cells. (C) SEAP activity in the conditioned media from NLE^−S-G infected unsorted SupT1 cells (10^6 cells/ml) four days, three weeks and one month post-infection. Three weeks post-infection, a sample (10^6 cells/ml) of a mass population of NLE^−S-G infected SupT1 cells was treated with TNF-α (100 ng/ml) and analyzed four days post activation. RLU, relative light units.
The infected mass population of cells was next tested for its ability to establish a latent infection. The infected mass population of SupT1 cells was maintained in culture for one month. […] This was also reflected in the reduction of SEAP expression by the third week (FIG. 2C). […]

[5] = test system: latent HIV-1 vector provirus in 19ST1NLESG cells; test: SEAP assay for late gene expression, 19ST1NLESG cells; assay type: cell-based; conditions: TNF-α 50 ng/ml, day 2 post treatment
Method: (§1) FIG. 3. Reactivation of early and late viral gene expression in three clonal cell lines by TNF-α. (A) 19ST1NLESG, 24ST1NLESG, and 29ST1NLESG cells (10^6/ml) were exposed to TNF-α (50 ng/ml) and four days after gfp expressing cells were analyzed by flow cytometry. The left panels show the histograms of unstimulated cells, and the right panels represent the histogram analysis of TNF-α (50 ng/ml) stimulated cells. Numbers show the percentages of gfp positive cells. (B) SEAP in the cultured media of untreated and TNF-α (50 ng/ml) stimulated 19ST1NLESG, 24ST1NLESG, 29ST1NLESG cells two and four days post plating. (C) Fold induction of SEAP expression in 19ST1NLESG, 24ST1NLESG, and 29ST1NLESG cells (10^6/m1) after stimulation with TNF-α (50 ng/ml). Readings were taken on the second and fourth days post activation. […]
(§2) In order to provide a well characterized system to identify molecules that can activate latent virus, SupT1 cell clones harboring latent vector provirus were isolated. […] Even at 0.1 ng/ml of TNF-α induction could be detected yielding SEAP activity 4-fold above background (FIG. 4).
(§3) 1×10^6 or 1×10^5 cells from the clonal cell lines or mass populations of infected cells were resuspended in RPMI media with or without the activator. […] The relative light units (RLU) were measured with a tube luminometer (Turner Designs 20/20) or a MLX Microtiter Plate Luminometer (DYNEX Technologies).

[6] = test system: latent HIV-1 vector provirus in 24ST1NLESG cells; test: SEAP assay for late gene expression, 24ST1NLESG cells; assay type: cell-based; conditions: for fold induction in SEAP activity: TNF-α 50 ng/ml
Method: FIG. 3. Reactivation of early and late viral gene expression in three clonal cell lines by TNF-α. (A) 19ST1NLESG, 24ST1NLESG, and 29ST1NLESG cells (10^6/ml) were exposed to TNF-α (50 ng/ml) and four days after gfp expressing cells were analyzed by flow cytometry. The left panels show the histograms of unstimulated cells, and the right panels represent the histogram analysis of TNF-α (50 ng/ml) stimulated cells. Numbers show the percentages of gfp positive cells. (B) SEAP in the cultured media of untreated and TNF-α (50 ng/ml) stimulated 19ST1NLESG, 24ST1NLESG, 29ST1NLESG cells two and four days post plating. (C) Fold induction of SEAP expression in 19ST1NLESG, 24ST1NLESG, and 29ST1NLESG cells (10^6/m1) after stimulation with TNF-α (50 ng/ml). Readings were taken on the second and fourth days post activation. Results shown are the means and standard deviations of one of three representative experiments.
FIG. 4. SEAP activation in 24ST1NLESG cells at different concentrations of TNF-α. SEAP synthesis by 24ST1NLESG cells (10^6/ml) four days post-activation with various concentrations (0.1 to 100 ng/ml) of TNF-α. The numbers above the bars show the fold induction of enzymatic activity calculated as ratio between the average value of RLU per sample induced cells compared to the mean RLU value of uninduced cells. RLU, relative light units. Results shown are the means and standard deviations of one of three representative experiments.
as §2, §3

[7] = test system: latent HIV-1 vector provirus in 29ST1NLESG cells; test: SEAP assay for late gene expression, 29ST1NLESG cells; assay type: cell-based; conditions: TNF-α 50 ng/ml, day 2 post treatment
Method: as §1, §2, §3

[8] = test system: latent HIV-1 vector provirus in 24ST1NLESG cells; test: HIV-1 p24gag ELISA, 24ST1NLESG cells; assay type: cell-based; conditions: TNF-α 50 ng/ml
Method: FIG. 5. HIV-1 Gag p24 protein production in 24ST1NLESG cells. HIV-1 Gag p24 protein was detected in the cultured media of untreated and TNF-α (50ng/ml) treated 24ST1NLESG cells (10^6/ml) two and four days post-plating. Results shown are the means and standard deviations of one or two representative experiments.
To further characterize the 24ST1NLESG cell line, p24^gag expression was monitored using the ELISA after treatment with TNF-α (50 ng/ml) (FIG. 5).
HIV gag transfer assay. 1×10^6 SupT1 infected cells (latent mass population and clonal cell lines) were plated followed by harvesting supernatant one week later. Samples were collected both from TNF-α activated and untreated cells. They were passed through a 0.45-μm pore-size filter and used to inoculate […] 10^6 parental SupT1 cells for 24 h. The cells were washed twice with PBS and resuspended in fresh media. The same process was repeated once again with conditioned media from the targeted parental cells, and a new batch of SupT1 cells was treated. Passing the conditioned media over two sets of virgin SupT1 cells helps to assure that the carryover of gag protein in the samples will be eliminated and only the de novo synthesized protein, if present, will be assessed. […] Samples were considered virus free when the p24^gag concentration was below the detection threshold, which for this assay, was determined to be 10 pg/ml.

[9] = test system: latent HIV-1 vector provirus in 24ST1NLESG cells; test: Quantitative real-time RT-PCR of HIV-1 mRNA, 24ST1NLESG cells; assay type: cell-based; conditions: TNF-α 50 ng/ml, day 4 post-stimulation, normalized to β-actin
Method: FIG. 6. Real-time RT-PCR for relative quantification of HIV-1 mRNA levels in 24ST1NLESG cells before and after activation from latency. Quantitative real-time RT-PCR was performed with RNA isolated from 24ST1NLESG cells (10^6/ml) following one and four days after stimulation with TNF-α (50 ng/ml). cDNA was synthesized with polyT oligo, and the reactions were completed with primers to viral (Rev2) and cellular (β-actin) genes with SYBR green detection. The ‘Delta-delta method’ (PE Applied Biosystems) was used to compare the relative expression results (ΔCT) between the values obtained from the RNA samples from stimulated cells to the values obtained from RNA isolated from untreated cells. The results were normalized to the expression of β-actin. […]
The consistent reactivation of viral genes as evidenced by the pattern of expression of the three markers assayed correlated with an increase in the relative levels of total viral mRNA. The relative amount of total HIV-1 mRNA was determined by quantitative real-time PCR using primers to the second exon of rev (Rev2). […] Therefore, only the level of mature polyadenylated RNA was detected.
The relative ratio of viral RNA after stimulation of 24ST1NLESG latent cells was determined as described in the Examples using the relative RNA results obtained for the unstimulated 24ST1NLESG cells as a control. β-actin was used as a reference gene. […]

Compound	activation of latent virus [1]	cytotoxicity [2]	increase in SEAP activity [3] [fold]	number of GFP-positive cells after treatment [4] [%]	fold induction in SEAP activity [5]	SEAP activity above background ([6]; 0.1 ng/ml TNF-α, four days post-activation) [fold]	fold induction in SEAP activity ([6]; day 2 post treatment) [fold]	fold induction in SEAP activity ([6]; day 4)	fold induction in SEAP activity [7] [fold]	concentration of p24gag above background ([8]; 2 days post-activation) [fold]	concentration of p24gag above background ([8]; 4 days post-activation) [fold]	increase in relative ratio of viral RNA [9]
CCCCCCCCCCCCCC(=O)O[C@@H]1[C@@H](C)[C@@]2(O)[C@@H](C=C(CO)C[C@]3(O)C(=O)C(C)=C[C@@H]23)[C@@H]2C(C)(C)[C@]12OC(C)=O [PMA, phorbol 12-myristate 13-acetate]	could stimulate latent virus	–	–	–	–	–	–	–	–	–	–	–
CC(=O)O[C@@]12C[C@@H](C)[C@@]3(O)[C@@H](C=C(CO)C[C@]4(O)C(=O)C(C)=C[C@@H]34)[C@@H]1C2(C)C [prostratin]	able to activate latent virus	significant cytotoxicity	–	–	–	–	–	–	–	–	–	–
TNF-α	–	–	400	19	approximately 50 fold	4	~400	approximately 600 fold	~150	50	100	at least 100 fold
